{
  "source": "PubChem BioAssay AID1035473",
  "about": "(Broad Institute, 2014)",
  "test_system": "A549 viability, CellTiter-Glo ATP luminescence, 72 h",
  "experiment": "A549 cell cytotoxicity, dose response, cytotoxicity control, dry powder samples (AID 1035473)",
  "data": [
    {"smiles": "Cn1c(NC(=O)c2ccccc2)nc2c3cnccc3ccc21", "values": [
      {"measurement": "AC50", "result": 83.9, "unit": "µM"}
    ]}
  ]
}
